# Laboratory results from patent publication US11007148B2, “Amphiphilic block copolymers for delivery of active agents” (priority 2014, dated 2021).
# Counter-ions that a name gives are not always drawn.
# How the values were obtained:
# [1] = free drug; cited from earlier work
# [2] = mouse, in vivo
# Text: In this example the kinetic properties of loaded micelles with PTX are studied in vivo using the fluorophore labels Cy7 and Cy5.5. Cy7 was covalently linked to the polymer chain and reports about the fate of the injected micelles; Cy5.5 was physically loaded in the core of the micelles and used as a modal drug.
# CD-1 nude female mice (n=5) were fed with chlorophyll-free food pellets and water ad libitum, and caged in ventilated cages and clinically controlled rooms and atmosphere.
Molecule,Log P [1],half-life of the Cy5.5 label relative to the micelles [2]
COc1nc2ccc(Br)cc2cc1[C@@H](c1ccccc1)[C@@](O)(CCN(C)C)c1cccc2ccccc12 [Bedaquiline],7.59,–
C[C@H](NC(=O)Cc1cc(F)cc(F)c1)C(=O)N[C@H](C(=O)OC(C)(C)C)c1ccccc1 [DAPT],3.54,–
"COc1cccc2c1C(=O)c1c(O)c3c(c(O)c1C2=O)C[C@@](O)(C(=O)CO)C[C@@H]3O[C@H]1C[C@H](N)[C@H](O)[C@H](C)O1 [DOX•HCl, doxorubicin hydrochloride]",2.82,–
CC(=O)O[C@H]1C(=O)[C@@]2(C)[C@H]([C@H](OC(=O)c3ccccc3)[C@]3(O)C[C@H](OC(=O)[C@H](O)[C@@H](NC(=O)c4ccccc4)c4ccccc4)C(C)=C1C3(C)C)[C@]1(OC(C)=O)CO[C@@H]1C[C@@H]2O [Paclitaxel],4.7,–
Cy5.5,–,shorter half-life
